This passage reports IC50 results from US20100168079A1 (priority 2008, published 2010).

In the assay the target is T1, human S1P1 receptors (Homo sapiens, UniProt P21453).
T1 construct: myc (N); expressed in transfected cells; host or cells: HeLa (human cervix carcinoma, ATCC CCL2), HeLa-S1P1/Gα16 cell clone 1
Description: Human S1P1 Receptor Calcium FLIPR Antagonist Assay (HeLa Gα16 S1P1). The assay is classed as cell-based. Conditions: relative antagonism of Ca2+ signal evoked by probing agonist GNF-AC-1 at EC80; HeLa-S1P1/Gα16 cells. The method, then:
Human S1P1 Receptor Calcium FLIPR Antagonist Assay
The cells are plated in 384 well black plates (10′000 cells per well). […] After washing, the cells are transferred to the FLIPR. The test compounds are added at different concentrations […]) in HBSS in the presence of 0.1% BSA and changes in fluorescence are recorded (indication of agonism). The probing agonist is added 20-30 minutes afterwards to the wells at a concentration giving 80% of the maximal activity (EC80). After each addition, time points are collected as follows: 20 time points (2 seconds) before the addition of the agonist (Fmin) and 60 time points (1 or 2 seconds) after the addition of the probing agonist. This allows the determination of the maximal fluorescence (Fmax). The ratio (Fmax-Fmin)/Fmin is plotted against the log of the concentration of the test compounds and the IC50 (relative antagonism) is calculated using the XLfit-4 software. […] A concentration-response curve of the probing agonist is determined on each plate in parallel.

T1 sequence (P21453 whole entry): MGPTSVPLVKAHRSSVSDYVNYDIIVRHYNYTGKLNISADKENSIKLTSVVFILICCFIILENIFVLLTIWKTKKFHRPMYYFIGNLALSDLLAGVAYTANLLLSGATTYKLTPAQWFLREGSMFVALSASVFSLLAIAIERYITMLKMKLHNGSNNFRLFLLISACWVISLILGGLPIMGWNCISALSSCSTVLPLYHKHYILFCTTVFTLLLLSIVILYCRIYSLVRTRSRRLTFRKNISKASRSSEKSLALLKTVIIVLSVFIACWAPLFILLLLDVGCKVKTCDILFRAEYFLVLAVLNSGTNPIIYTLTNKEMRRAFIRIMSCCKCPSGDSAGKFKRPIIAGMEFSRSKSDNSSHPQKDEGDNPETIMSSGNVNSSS

On to `Cc1cc(C(C)Nc2cccc(-c3cc(F)c(C(=O)N[C@@H](C)C(=O)O)c(F)c3)c2)ccc1Cl` (stereo partly drawn) [Example 50, (S)-2-({3′-[1-(4-Chloro-3-methyl-phenyl)-ethylamino]-3,5-difluoro-biphenyl-4-carbonyl}-amino)-propionic acid], for which the IC50 came to 3 nM.

Take `Cc1cc(C(C)Nc2cccc(-c3cc(F)c(C(=O)N(C)[C@@H](C)C(=O)O)c(F)c3)c2)ccc1Cl` (stereo partly drawn) [Example 51, (S)-2-({3′-[1-(4-Chloro-3-methyl-phenyl)-ethylamino]-3,5-difluoro-biphenyl-4-carbonyl}-methyl-amino)-propionic acid]: the IC50 was 6 nM.

On to `Cc1cc(C(C)Nc2cccc(-c3ccc(C(=O)N[C@@H](C)C(=O)O)c(Cl)c3)c2)cc(C)c1Cl` (stereo partly drawn) [Example 52, (S)-2-({3-Chloro-3′-[1-(4-chloro-3,5-dimethyl-phenyl)-ethylamino]-biphenyl-4-carbonyl}-amino)-propionic acid], for which the IC50 stood at 1 nM.

Take `Cc1cc(C(C)Nc2cccc(-c3ccc(C(=O)N(C)[C@@H](C)C(=O)O)c(Cl)c3)c2)cc(C)c1Cl` (stereo partly drawn) [Example 53, (S)-2-({3-Chloro-3′-[1-(4-chloro-3,5-dimethyl-phenyl)-ethylamino]-biphenyl-4-carbonyl}-methyl-amino)-propionic acid]: the IC50 stood at 5 nM.

`Cc1cc(C(C)Nc2cccc(-c3ccc(C(=O)N(C)[C@@H](C)C(=O)O)c(F)c3)c2)cc(C)c1Cl` (stereo partly drawn) [Example 55, (S)-2-({3′-[1-(4-Chloro-3,5-dimethyl-phenyl)-ethylamino]-3-fluoro-biphenyl-4-carbonyl}-methyl-amino)-propionic acid]: the IC50 is 9 nM.

Consider `Cc1cc(C(C)Nc2cccc(-c3cc(F)c(C(=O)N[C@@H](C)C(=O)O)c(F)c3)c2)cc(C)c1Cl` (stereo partly drawn) [Example 56, (S)-2-({3′-[1-(4-Chloro-3,5-dimethyl-phenyl)-ethylamino]-3,5-difluoro-biphenyl-4-carbonyl}-amino)-propionic acid], for which the IC50 was 1 nM.

As to `Cc1cc(C(C)Nc2cccc(-c3cc(F)c(C(=O)N(C)[C@@H](C)C(=O)O)c(F)c3)c2)cc(C)c1Cl` (stereo partly drawn) [Example 57, (S)-2-({3′-[1-(4-Chloro-3,5-dimethyl-phenyl)-ethylamino]-3,5-difluoro-biphenyl-4-carbonyl}-methyl-amino)-propionic acid], the IC50 stood at 6 nM.

As to `CCC(Nc1cccc(-c2ccc(C(=O)N(C)[C@@H](C)C(=O)O)c(C)c2)c1)c1ccc(Cl)c(C)c1` (stereo partly drawn) [Example 58, (S)-2-({3′-[1-(4-Chloro-3-methyl-phenyl)-propylamino]-3-methyl-biphenyl-4-carbonyl}-methyl-amino)-propionic acid], the IC50 was 2 nM.

With `Cc1cc(-c2cccc(NC(C)c3cc(C)c(Cl)c(C)c3)c2)ccc1C(=O)N(C)[C@@H](C)C(=O)O` (stereo partly drawn) [Example 59, (S)-2-({3′-[1-(4-Chloro-3,5-dimethyl-phenyl)-ethylamino]-3-methyl-biphenyl-4-carbonyl}-methyl-amino)-propionic acid], the IC50 is 3 nM.

As for `CCC(Nc1cccc(-c2ccc(C(=O)N[C@@H](C)C(=O)O)c(Cl)c2)c1)c1ccc(Cl)c(C)c1` (stereo partly drawn) [Example 60, (S)-2-({3-Chloro-3′-[1-(4-chloro-3-methyl-phenyl)-propylamino]-biphenyl-4-carbonyl}-amino)-propionic acid], the IC50 was 1 nM.

Consider `CCC(Nc1cccc(-c2ccc(C(=O)N(C)[C@@H](C)C(=O)O)c(Cl)c2)c1)c1ccc(Cl)c(C)c1` (stereo partly drawn) [Example 61, (S)-2-({3-Chloro-3′-[1-(4-chloro-3-methyl-phenyl)-propylamino]-biphenyl-4-carbonyl}-methyl-amino)-propionic acid], for which the IC50 amounted to 1 nM.

Consider `Cc1cc(C(C)Nc2cccc(-c3ccc(C(=O)N[C@@H](C)C(=O)O)c(C(F)(F)F)c3)c2)ccc1Cl` (stereo partly drawn) [Example 62, (S)-2-({3′-[1-(4-Chloro-3-methyl-phenyl)-ethylamino]-3-trifluoromethyl-biphenyl-4-carbonyl}-amino)-propionic acid], for which the IC50 worked out at 1 nM.

Regarding `Cc1cc(C(C)Nc2cccc(-c3ccc(C(=O)N(C)[C@@H](C)C(=O)O)c(C(F)(F)F)c3)c2)ccc1Cl` (stereo partly drawn) [Example 63, (S)-2-({3′-[1-(4-Chloro-3-methyl-phenyl)-ethylamino]-3-trifluoromethyl-biphenyl-4-carbonyl}-methyl-amino)-propionic acid], the IC50 was 2 nM.

In the case of `Cc1cc(C(C)Nc2cccc(-c3ccc(C(=O)N[C@@H](C)C(=O)O)c(C(F)(F)F)c3)c2)cc(C)c1Cl` (stereo partly drawn) [Example 64, (S)-2-({3′-[1-(4-Chloro-3,5-dimethyl-phenyl)-ethylamino]-3-trifluoromethyl-biphenyl-4-carbonyl}-amino)-propionic acid], the IC50 stood at 1 nM.

`Cc1cc(C(C)Nc2cccc(-c3ccc(C(=O)N(C)[C@@H](C)C(=O)O)c(C(F)(F)F)c3)c2)cc(C)c1Cl` (stereo partly drawn) [Example 65, (S)-2-({3′-[1-(4-Chloro-3,5-dimethyl-phenyl)-ethylamino]-3-trifluoromethyl-biphenyl-4-carbonyl}-methyl-amino)-propionic acid]: the IC50 worked out at 6 nM.

With `CCC(Nc1cccc(-c2ccc(C(=O)N[C@@H](C)C(=O)O)c(C(F)(F)F)c2)c1)c1ccc(Cl)c(C)c1` (stereo partly drawn) [Example 66, (S)-2-({3′-[1-(4-Chloro-3-methyl-phenyl)-propylamino]-3-trifluoromethyl-biphenyl-4-carbonyl}-amino)-propionic acid], the half-maximal inhibitory concentration (IC50) came to 3 nM.

`CCC(Nc1cccc(-c2ccc(C(=O)N(C)[C@@H](C)C(=O)O)c(C(F)(F)F)c2)c1)c1ccc(Cl)c(C)c1` (stereo partly drawn) [Example 67, (S)-2-({3′-[1-(4-Chloro-3-methyl-phenyl)-propylamino]-3-trifluoromethyl-biphenyl-4-carbonyl}-methyl-amino)-propionic acid]: the IC50 was 3 nM.

`Cc1cc(C(C)Nc2cccc(-c3cc(C)c(C(=O)NCC(=O)O)c(C)c3)c2)ccc1Cl` (centres unmarked) [Example 68, ({3′-[1-(4-Chloro-3-methyl-phenyl)-ethylamino]-3,5-dimethyl-biphenyl-4-carbonyl}-amino)-acetic acid]: the IC50 came to 1 nM.

As to `COC[C@H](NC(=O)c1c(C)cc(-c2cccc(NC(C)c3ccc(Cl)c(C)c3)c2)cc1C)C(=O)O` (stereo partly drawn) [Example 69, (S)-2-({3′-[1-(4-Chloro-3-methyl-phenyl)-ethylamino]-3,5-dimethyl-biphenyl-4-carbonyl}-amino)-3-methoxy-propionic acid], the IC50 was 2 nM.

With `Cc1cc(C(C)Nc2cccc(-c3cc(C)c(C(=O)N[C@@H](CCCCN)C(=O)O)c(C)c3)c2)ccc1Cl` (stereo partly drawn) [Example 70, (S)-6-Amino-2-({3′-[1-(4-chloro-3-methyl-phenyl)-ethylamino]-3,5-dimethyl-biphenyl-4-carbonyl}-amino)-hexanoic acid], the 50% inhibitory concentration (IC50) was 2 nM.

`Cc1cc(C(C)Nc2cccc(-c3cc(C)c(C(=O)NC4(C(=O)O)CCC4)c(C)c3)c2)ccc1Cl` (centres unmarked) [Example 72, 1-({3′-[1-(4-Chloro-3-methyl-phenyl)-ethylamino]-3,5-dimethyl-biphenyl-4-carbonyl}-amino)-cyclobutanecarboxylic acid]: the IC50 is 2 nM.

`Cc1cc(C(C)Nc2cccc(-c3ccc(C(=O)N(C)[C@@H](C)C(=O)O)c(C)c3)c2)ccc1Cl` (some centres unmarked) [Example 76]: the IC50 was 3 nM.

Turning to `Cc1cc(-c2cccc(NC(C)c3ccc(Cl)c(Cl)c3)c2)ccc1C(=O)N(C)[C@@H](C)C(=O)O` (stereo partly drawn) [Example 78, (S)-2-({3′-[1-(3,4-Dichloro-phenyl)-ethylamino]-3-methyl-biphenyl-4-carbonyl}-methyl-amino)-propionic acid], the IC50 turned out to be 7 nM.

Consider `Cc1cc(C(C)Nc2cccc(-c3cc(C)c(C(=O)NC4(C(=O)O)CNC4)c(C)c3)c2)ccc1Cl` (centres unmarked) [Example 79, 3-({3′-[1-(4-Chloro-3-methyl-phenyl)-ethylamino]-3,5-dimethyl-biphenyl-4-carbonyl}-amino)-azetidine-3-carboxylic acid], for which the IC50 amounted to 2 nM.

Consider `Cc1cc(C(C)N(C)c2cccc(-c3cc(C)c(C(=O)N[C@@H](C)C(=O)O)c(C)c3)c2)ccc1Cl` (stereo partly drawn) [Example 80, (S)-2-[(3′-{[1-(4-Chloro-3-methyl-phenyl)-ethyl]-methyl-amino}-3,5-dimethyl-biphenyl-4-carbonyl)-amino]-propionic acid], for which the half-maximal inhibitory concentration (IC50) is 4 nM.

For `CCC(Nc1ccc(F)c(-c2ccc(C(=O)N(C)[C@@H](C)C(=O)O)c(C)c2)c1)c1ccc(Cl)c(C)c1` (stereo partly drawn) [Example 86, (S)-2-({5′-[1-(4-Chloro-3-methyl-phenyl)-propylamino]-2′-fluoro-3-methyl-biphenyl-4-carbonyl}-methyl-amino)-propionic acid], the IC50 came out at 6 nM.

On to `Cc1cc(C(C)Nc2ccc(F)c(-c3ccc(C(=O)N(C)[C@@H](C)C(=O)O)c(Cl)c3)c2)ccc1Cl` (stereo partly drawn) [Example 87, (S)-2-({3-Chloro-5′-[1-(4-chloro-3-methyl-phenyl)-ethylamino]-2′-fluoro-biphenyl-4-carbonyl}-methyl-amino)-propionic acid], for which the IC50 amounted to 4 nM.

On to `CCC(Nc1ccc(F)c(-c2ccc(C(=O)N(C)[C@@H](C)C(=O)O)c(Cl)c2)c1)c1ccc(Cl)c(C)c1` (some centres unmarked) [Example 88], for which the IC50 was 5 nM.

In the case of `CCC(Nc1ccc(F)c(-c2ccc(C(=O)N(C)[C@@H](C)C(=O)O)c(C(F)(F)F)c2)c1)c1ccc(Cl)c(C)c1` (stereo partly drawn) [Example 89, (S)-2-({5′-[1-(4-Chloro-3-methyl-phenyl)-propylamino]-2′-fluoro-3-trifluoromethyl-biphenyl-4-carbonyl}-methyl-amino)-propionic acid], the IC50 came out at 13 nM.

Broadly, the IC50 is the concentration that inhibits the measured activity by half.
